We go through six molecules from patent publication US20120252894A1, “COMPOUNDS FOR ALLEVIATING PAIN AND STRESS IN FETUS AND NEWBORN” (priority 2011, published 2012).

Where a SMILES comes first, the peptide text is derived from it. Bridges are numbered along the chain shown (N, C = ends). [ ]: non-standard residue; d: D form. Orn = NCCC[C@H](N)C(=O)O; Mpa = O=C(O)CCS

The subject of one assay is newborn rats. The assay is described as follows: Thermal tail-flick assay (tail immersion, 50° C. water). Format: in vivo, rat. Particulars: for change in tail withdrawal delay: P0 rats, atosibane 2 μg/kg or SSR126768A 1 μg/kg intraperitoneal; for change in tail-flick delays: P2 rats, oxytocin receptor blockers; for reversal of the effect of oxytocin receptor blockers on tail-flick: newborn rats. In general terms: Thermal pain tests record how soon the animal reacts.

The subject of another assay is neonatal rats. The assay is described as follows: Vocalization evoked by electrical stimulation of the whisker pad in decerebrated rat pups. Type of assay: in vivo. On the procedure:
Under isoflurane (1.5%) anaesthesia, rat pups were implanted with bipolar electrodes into the whisker pad and decerebrated at the upper pons level via a hole drilled 1 mm posterior to lambda using blunted 36 gouge needle, to avoid blood bleeding the hole was covered by cyanoacrylate after. After 10 min (P0) or one hour (P1-2 pups) of recovery period, the pups were wrapped by cotton and placed on the thermal blanket (38° C.). Whisker pad was stimulated by electrical train pulses (1 ms pulse duration, 5-25 V amplitude, 50 Hz, 1 minute inter-train interval). Vocalization response was recorded by microphone, digitized at 10 kHz using Digidata 1440 interface (Axon Instruments) and analyzed offline using Matlab (MathWorks, Natick, Mass.). To quantify the vocalization response, we calculated scalar integral (□) as following: (i) raw acustogram was converted to scalar acustogram by inverting all negative values to positive values; (ii) scalar acustogram was corrected for the baseline activity level by subtraction of the mean scalar acustogram value calculated during 1 minute before stimulation; (iii) scalar acustogram integral was calculated as cumulative, corrected for the baseline, scalar acustogram during 5 sec after stimulation.
In the experiments in vivo, Oxytocin (Sigma) 50 μM was injected at 0.1 ml/5 g (diluted in saline) IP, 30 min before testing. Bumetanide (Sigma) solution 25 μg/ml was injected IP at the dose of 5 μmol/kg, 30 min before testing. Atosiban (Sigma) (diluted in saline) was injected at 2 μg/kg, IP, 30 min before testing. SSR126768A (gift from Sanofi-Synthelabo) diluted in saline injected at 1 mg/kg IP, 30 min before testing. Sham injections in the control group were performed with equal volumes of saline.
In the second experiment, we studied oxytocin-modulation of the pain responses by measuring vocalization evoked by electrical stimulation of the whisker pad. Animals were decerebrated at caudal midbrain levels to cut the descending oxytocin projections from the VPN to spinal cord and to prevent noxious input to the brain. Electrical stimulation of the whisker pad evoked vocalization in the neonatal rats despite of decerebration. Vocalizing response was composed of several bursts with a dominant frequency in the range from 2.7 to 5 kHz (mean frequency 3.9±0.1 kHz n=24, rat P0-2). To quantify vocalization response, we calculated scalar acusticogram integral. In agreement with the results of the thermal tail-flick assay, oxytocin receptor blocker atosiban (2 μg/kg) increased vocalization response in the fresh newborn P0 rats (to 155±28%, n=8, p=0.0003;). […]

In assay [1] the test system is isolated spinal cord preparations. Briefly: Primary afferents depolarization (DR-DRPs) in isolated spinal cord. Also on record: species or system rat. On the procedure: Experiments were performed on lumbar (L) spinal cord preparations isolated from neonatal Wistar rats (P0-P1). All efforts were made to reduce the number of animals used and to minimize animal suffering. The experimental setup was the same as described previously (Taccola and Nistri, 2004). The spinal cord was superfused (5 ml min-1) with Krebs solution of the following composition (in mM): NaCl, 113; KCl, 4.5; MgCl2×7H2O, 1; CaCl2, 2; NaH2PO4, 1; NaHCO3, 25; glucose, 11; gassed with 95% O2-5% CO2; pH 7.4 at room temperature. All agents were bath-applied via the superfusing solution at the concentrations mentioned in the text. Recordings were obtained with glass suction electrodes (containing an Ag—AgCl pellet) filled with Krebs solution. Miniature bipolar suction electrodes were used in order to deliver single or repetitive electrical stimuli to DRs to evoke DR-DR potentials (DR-DRPs) (Kerkut and Bagust, 1995). Stimulus intensity was calculated in terms of threshold (Th), defined as the minimum intensity to elicit a detectable response in the homolateral VR.
Depolarizing action of GABA on the axons of primary afferents underlies primary afferents depolarization (PAD), that is a depolarizing response evoked by dorsal root stimulation in the neighboring dorsal root (Willis, 2006; Rudomin and Schmidt, 1999). Therefore, in the next experiments we have studied the effect of oxytocin on PAD in the in vitro isolated spinal cord preparations obtained from newborn rats.

Assay [2] deals with trigeminal sensory neurons. Briefly: Calcium imaging of GABA-evoked intracellular calcium increases. Type of assay: cell-based, rat. Particulars: oxytocin 1 μM; for GABA-evoked intracellular calcium increases: trigeminal neurons from newborn rats, five hours in vitro. On the procedure: Trigeminal sensory neurons were obtained from P0 rats. Animals were anesthetized by CO2 and decapitated. Trigeminal ganglia were excised and enzymatically dissociated in F12 medium containing 0.25 mg/ml trypsin, 1 mg/ml collagenase and 0.2 mg/ml DNAse (Sigma) at 37° C. Cells were plated on poly-1-lysine-coated Petri dishes in F12 medium with 10% fetal calf serum and examined 5 hours after plating. For Ca2+ imaging experiments cells were incubated for 40 min at 20-22° C. in physiological solution containing Fluo3 (AM ester cell-permeable compound; 1 μM; Molecular Probes), followed by a 30 min washout period. Fluorescence emission was detected with a Cell-R imaging system (Olympus, Hamburg, Germany). Images were acquired with 200 ms exposure time and single cell responses were analyzed with the Cell-R software. All drugs were applied via fast perfusion system (RDS-200, BioLogic Science Instruments Grenoble, France). Only cells with two stable control GABA transients were taken into analysis. Intracellular Ca2+ transients were expressed as percent amplitude increase (ΔF/F0, where F0 is the baseline fluorescence level and ΔF is the increment over baseline). Ca2+ transient intensity data was exported and then analyzed off-line using Excel and Origin (version 8.0) software. Significance was analyzed by non-parametric Mann-Witney test.
Because analgesic action of oxytocin in adult rats involves modulation of GABAergic control of the primary nociceptive afferents (Condes-Lara et al., 2009), we studied the effect of oxytocin on GABA responses in sensory trigeminal neurons, which detect noxious stimuli and conduct them to the spinal cord. Experiments were performed in primary cultures of trigeminal neurons dissociated from newborn rats and kept for five hours in vitro. In keeping with previous observations (Wang et al., 1994; Reichling et al., 1994), activation of GABA receptors induced robust transient increases of intracellular calcium in trigeminal neurons indicating depolarizing action of GABA and calcium entry into the cells via voltage-gated calcium channels. […]
In general terms: Calcium flux is commonly read through the fluorescence of an indicator in the cells.

Another assay has as its target T1, TRPV1 receptors (Rattus norvegicus, UniProt O35433).
T1 construct: endogenous in cells; host or cells: acutely dissociated primary sensory neurons (trigeminal ganglia per methods; called DRG neurons in results) from P0 rats
Briefly: Calcium imaging of capsaicin-evoked responses in DRG neurons. Type of assay: cell-based.

Another assay deals with GABA(A) channels. Briefly: Cell-attached single GABA(A) channel recordings (GABA driving force). Format: cell-based, rat. Particulars: immature trigeminal neurons; oxytocin 1 μM (control 38.7±2.4 mV). On the procedure: Single GABA channel recordings were performed from the trigeminal sensory neurons prepared as described above. Cell attached patch-clamp recordings were performed using Axopatch 200A (Axon Instruments, Union City, Calif.) and EPC-9 (HEKA Elektronik Dr. Schulze GmbH, Lambrecht/Pfalz, Germany) amplifiers. Patch electrodes were made from borosilicate glass capillaries (GC150F-15, Clark Electromedical Instruments). For recordings of single GABA(A) channels, patch pipette solution contained (in mM): NaCl 120, TEA-Cl 20, KCl 5, 4-aminopyridine 5, CaCl2 0.1, MgCl2 10, glucose 10, Hepes-NaOH 10 buffered to pH 7.2-7.3 and GABA (1-5 μM) was added at the day of experiment from 1 mM frozen stock solution. Driving force for GABA(A) receptor mediated currents was determined from the current-voltage relationships of the currents through single GABA(A) channels single as described earlier (Tyzio et al., 2006) and corrected for an error of 2 mV (Tyzio et al., 2008).
DFGABA was deduced from reversal potential of the currents via GABA(A) channels (Serafini et al., 1995; Tyzio et al., 2006; Tyzio et al., 2008). In control conditions, GABA exerted strongly depolarizing action on the immature trigeminal neurons with DFGABA of 38.7±2.4 mV (n=6). In the presence of oxytocin (1 μM), DFGABA reduced to 17.7±6.7 mV (n=5; P<0.05).

In the next assay the target is T2, P2X3 receptor (Rattus norvegicus, UniProt P49654).
T2 construct: endogenous in cells; host or cells: acutely dissociated primary sensory neurons (trigeminal ganglia per methods; called DRG neurons in results) from P0 rats
T2 sequence (P49654 1-397): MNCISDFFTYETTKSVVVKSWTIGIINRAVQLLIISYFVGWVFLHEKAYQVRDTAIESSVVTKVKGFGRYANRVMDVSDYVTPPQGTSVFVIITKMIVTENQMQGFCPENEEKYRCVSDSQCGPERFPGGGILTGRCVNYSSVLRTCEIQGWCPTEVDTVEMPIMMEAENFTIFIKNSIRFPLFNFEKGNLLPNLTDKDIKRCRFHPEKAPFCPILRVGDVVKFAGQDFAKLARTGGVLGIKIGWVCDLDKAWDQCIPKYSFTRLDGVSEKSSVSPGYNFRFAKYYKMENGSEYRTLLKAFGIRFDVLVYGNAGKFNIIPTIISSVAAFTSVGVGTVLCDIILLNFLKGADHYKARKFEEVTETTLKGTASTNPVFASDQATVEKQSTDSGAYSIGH
Briefly: Calcium imaging of α-β-meATP-evoked responses in DRG neurons. Format: cell-based.

Where [3] appears, read: newborn rats, drug alone (oxytocin 1 μM; atosiban 10 μM).
Where [4] appears, read: recordings between 12 and 24 hours after birth, atosiban 10 μM, oxytocin.

T1 sequence (O35433 whole entry): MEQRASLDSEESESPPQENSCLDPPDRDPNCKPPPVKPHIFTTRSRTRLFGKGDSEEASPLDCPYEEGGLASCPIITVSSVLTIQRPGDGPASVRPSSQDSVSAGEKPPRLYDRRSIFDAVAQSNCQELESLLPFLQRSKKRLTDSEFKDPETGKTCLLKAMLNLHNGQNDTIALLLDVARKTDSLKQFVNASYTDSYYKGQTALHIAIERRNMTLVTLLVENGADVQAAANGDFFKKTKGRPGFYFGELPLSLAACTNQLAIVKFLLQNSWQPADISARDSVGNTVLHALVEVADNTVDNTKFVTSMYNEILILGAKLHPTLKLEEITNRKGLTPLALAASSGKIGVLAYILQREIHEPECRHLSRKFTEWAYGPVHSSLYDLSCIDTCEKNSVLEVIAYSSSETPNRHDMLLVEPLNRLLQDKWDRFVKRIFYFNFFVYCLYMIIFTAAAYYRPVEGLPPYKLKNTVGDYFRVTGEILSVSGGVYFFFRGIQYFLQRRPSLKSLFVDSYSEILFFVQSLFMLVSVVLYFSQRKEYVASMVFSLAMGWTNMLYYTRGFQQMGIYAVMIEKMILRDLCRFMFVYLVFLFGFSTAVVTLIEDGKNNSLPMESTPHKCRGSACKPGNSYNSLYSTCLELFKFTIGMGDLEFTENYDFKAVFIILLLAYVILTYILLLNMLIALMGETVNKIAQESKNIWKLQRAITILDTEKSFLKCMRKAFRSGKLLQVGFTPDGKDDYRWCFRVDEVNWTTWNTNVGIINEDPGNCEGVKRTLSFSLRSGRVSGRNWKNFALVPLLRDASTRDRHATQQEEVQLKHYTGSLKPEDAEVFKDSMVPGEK
Experimental for newborn rats: Pregnant and maternal Wistar rats were housed with a 12-h light-dark-cycle, at 24°±1° C., and food and water ad libitum. The day of birth was considered 0 day old (P0). Experiments on P0 rats (male and female) were performed within two hours after birth.
The pup was held in a box with a hole allowing the tail to protrude from it. The inner surface of the box was covered with an aluminum sheet forming an electrical contact with the rat body. The electrical circuit via the sheet, body, tail and water bath was powered by a 1.5 V battery and its connection and disconnection could be easily detected upon the tail immersion and withdrawal from the water, respectively. Electrical signals were digitized at 1 kHz using a Digidata 1200 and recorded to a computer. The distal tip of the tail was lowered into the water bath (50° C.). Latency to withdrawal was recorded as the “pain” parameter, with a 15-second maximum allowable threshold. After three habituation tests, the latency to withdrawal was determined from the average of three consecutive measurements.
We first tested pain sensitivity in the newborn rats using a thermal tail-flick response. In this test, pain sensitivity is reciprocal to the delay in tail withdrawal from the hot water. […] We studied thermal tail-flick response in two age groups: (i) fresh newborn animals which were examined immediately, within an hour, after birth (P0) and (ii) two day-old rat pups (P2). […] We further studied whether endogenous oxytocin is involved in reduced pain in the newborn rats. To block the action of endogenous oxytocin circulating in the newborn pups we used selective blockers of oxytocin receptors atosibane (2 μg/kg, intraperiotoneal) and SSR126768A (1 μg/kg, intraperiotoneal).

On to `CCN(Cc1cccnc1)C(=O)c1ccc(Cl)c([C@]2(C)C(=O)N(Cc3ccc(OC)cc3OC)c3ccc(Cl)cc32)c1` [SSR126768A], for which, in the assay with newborn rats, the “change in tail withdrawal delay” value is given as “nearly three-fold acceleration in the tail withdrawal” and the “change in tail-flick delays” value was “did not significantly modify the tail-flick delays”.

Consider `CCOc1ccc(C[C@H]2NC(=O)CCSSC[C@@H](C(=O)N3CCC[C@H]3C(=O)N[C@@H](CCCN)C(=O)NCC(N)=O)NC(=O)[C@H](CC(N)=O)NC(=O)[C@H]([C@@H](C)O)NC(=O)[C@H]([C@@H](C)CC)NC2=O)cc1` [atosiban] ([Mpa][dY](Et)ITNCP[Orn]G-NH2; disulfide 1-6), for which, in the assay on neonatal rats (P0 rats, atosiban 2 μg/kg), the “vocalization response (scalar acusticogram integral)” value was 155±28%. In the assay with neonatal rats (P1-2 rats, atosiban on top of exogenous oxytocin), the “vocalization response, from control level” value is given as 84±38%. Besides, the “peak of DR-DRPs, % of control” value was determined as 106.0±20.8% in assay [1] (atosiban 10 μM added to oxytocin 1 μM), 112.7±9.1% in assay [1] (setting [3]) and 90.0±9.8% in assay [1] (setting [4]). Also, in the assay with newborn rats, the “change in tail withdrawal delay” value was “nearly three-fold acceleration in the tail withdrawal”. Also, in the assay on newborn rats, the “change in tail-flick delays” value is listed as “did not significantly modify the tail-flick delays”.

With `CCCCNc1cc(C(=O)O)cc(S(N)(=O)=O)c1Oc1ccccc1` [bumetanide], the “vocalization response (scalar acusticogram integral)” value with neonatal rats (P1-2 rats, drug alone) is 72±16%. In assay [2], the “GABA-evoked intracellular calcium increases” value is “suppressed the GABA receptor mediated increases in intracellular calcium”. Moreover, in assay [1] (bumetamide 20 μM added to atosiban 10 μM), the “peak of DR-DRPs, % with respect to control values” is reported as 66.6±13.8%. In addition, in the assay on newborn rats (bumetanide 10 μM/kg, both age groups (P0 and P2)), the tail-flick responses entry is “strongly delayed the tail-flick responses”. Also, the “reversal of the effect of oxytocin receptor blockers on tail-flick” value in the assay on newborn rats is “reversed the effect of oxytocin receptor blockers”.

As for `COc1cc(CNC(=O)CCCC/C=C/C(C)C)ccc1O` [capsaicin], the “Ca2+ response evoked by agonist” value at TRPV1 receptors (200 nM, 2 s pulses at 10 min intervals) was “evoked transient, and quite stable Ca2+ increases”.

Take `CC[C@H](C)[C@@H]1NC(=O)[C@H](Cc2ccc(O)cc2)NC(=O)[C@@H](N)CSSC[C@@H](C(=O)N2CCC[C@H]2C(=O)N[C@@H](CC(C)C)C(=O)NCC(N)=O)NC(=O)[C@H](CC(N)=O)NC(=O)[C@H](CCC(N)=O)NC1=O` [oxytocin]: at TRPV1 receptors (1 μM-OT for 20-30 min), the “amplitude of capsaicin (200 nM) evoked Ca2+ responses” value is on record as “did not significantly change the amplitude”. Moreover, the “vocalization response (scalar acusticogram integral)” value in the assay on neonatal rats (P1-2 rats, drug alone) is listed as 41±12%. Also, the “duration of slow transient responses induced by the drug” value in assay [2] (not shown) was 60 to 80 s. In addition, the “GABA-evoked intracellular calcium increases” value in assay [2] is listed as “significantly reduced GABA-evoked calcium increases”. Moreover, the “GABA driving force (DFGABA)” value in the assay with GABA(A) channels worked out at 17.7±6.7 mV. The “peak of DR-DRPs, % of control” value in assay [1] (setting [3]) was found to be 93.6±5.6%; in assay [1] (setting [4]), 77.8±21.6%. On P2X3 receptor (1 μM-OT for 20-30 min), the “amplitude of α-β-meATP (10 μM) evoked Ca2+ responses” value is reported as “did not significantly change the amplitude”. The “analgesic effect in tail-flick test” value in the assay with newborn rats (exogenous oxytocin 1 μg/kg systemic, newborn and P2 rats) is on record as “dramatic analgesic effect”. The “reversal of the effect of oxytocin receptor blockers on tail-flick” value in the assay with newborn rats is on record as “partially reverse the effects of the competitive oxytocin receptor blockers”.

On to `Nc1ncnc2c1ncn2[C@@H]1O[C@H](COP(=O)(O)CP(=O)(O)OP(=O)(O)O)[C@@H](O)[C@H]1O` [α-β-methylenATP], for which, at P2X3 receptor (10 μM, 2 s pulses at 10 min intervals), the “Ca2+ response evoked by agonist” value was “evoked transient, and quite stable Ca2+ increases”.
